Test results as given in patent US20220081481A1, “USE OF AGENTS CAPABLE OF INDUCING LC3-ASSOCIATED PHAGOCYTOSIS FOR TREATING SUSTAINED INFLAMMATION IN PATIENTS SUFFERING FROM CHRONIC LIVER DISEASE” (INSERM (INSTITUT NATIONAL DE LA SANTÉ ET DE LA RECHERCHE …, priority 2019, published 2022).
Ends that are not written are not given here.

Tested on: blood monocytes from patients with cirrhosis
Experiment: LC3+ pHrodo+ phagosome (LAPosome) number in blood monocytes from patients with cirrhosis
Format: cell-based, human
Settings: 10 mM 3-MA, 30 μM N8 peptide, data not shown
Protocol: Human blood monocytes. Human monocytes were isolated from freshly isolated PBMC, using EasySep human monocyte enrichment kit (STEMCELL Technologies, 19058), and CD14+CD16+ monocytes were isolated by immunomagnetic negative selection according to the manufacturer's instructions. Cell treatment. Human monocytes, THP1-XBlueTM-CD14 (Invivogen, Catalog #[…] THP1-FcγRIIA+-CD14+(kindly provided by Novimmune) monocytes were used. When indicated cells were exposed to either 30 μM chloroquine diphosphate (Sigma, C6628), 10 mM 3-Methyladenine (3-MA, Sigma, M9281-100 mg), 10 mM Diphenyleneiodonium chloride (DPI, Sigma, D2926-10 mg), or 10 mg/ml IVIg (Privigen, 100 mg/ml) for 4 hrs at 37° C., as indicated. […] For quantification, images were acquired by confocal microscopy (Confocal Zeiss LSM 780) equipped with a 63× oil immersion objective. For each condition, 10 to 15 fields were randomly selected, and the number of LC3+ signal localized around pHrodo+ phagosomes (LC3+ pHrodo+) was quantified in at least 40 to 60 cells. Unless otherwise indicated, results are expressed as number of LC3+ phagosomes/individual normalized to 100 cells. […]

Molecule	LC3+ phagosome number
N8 peptide: Tat-conjugated peptide of eight N-terminal amino acids (3-10) of p22phox that blocks the Rubicon-p22phox interaction (QIEWAMWA; also: Tat cell-penetrating peptide conjugate, attachment not given here; UniProt P13498 3-10, looked up, fragment)	significant reduction
Cn1cnc(N)c2ncnc1-2 [3-MA, 3-Methyladenine]	significant reduction
